The values below come from patent US20250197363A1, “THIADIAZOLE COMPOUND, AND PHARMACEUTICAL COMPOSITION FOR PREVENTING OR TREATING INFLAMMATORY DISEASES, INCLUDING SAME” (Cureverse Incorporated, priority 2022, published 2025).

Data set [1] deals with LPS-stimulated Raw264.7 cells. Description: Nitric oxide (NO) production, Griess reagent. It is filed as cell-based. As to conditions: LPS-stimulated Raw264.7, 24 hours. The method, then:
The concentration of NO was measured using the nitrite concentration in the culture medium with the Griess reagent system (Promega). Raw264.7 cells were adjusted to 2.5×10^5 cells/mL using DMEM medium, inoculated into 24-well plates, and pre-cultured for 20 hours in a 5% CO2 incubator. The cells were treated with […] of LPS and various concentrations of the example compounds and recultured for 24 hours. After obtaining the supernatant of the culture medium, the NO concentration was measured using the Griess reagent system according to the protocol provided by the manufacturer. The absorbance was measured at 540 nm using a microplate reader [BMG Labtech (located in Offenburg, Germany)]. The concentration of NO in the cell culture medium was calculated by comparing it with a standard curve for each concentration of sodium nitrite (NaNO2).
1 mg/mL lipopolysaccharide (LPS) and the compounds of Example 1 at concentrations of 0, 12 μM, 25 μM, and 50 μM were added to Raw264.7 cells, cultured for 24 hours, and changes in NO concentration in the upper layer of the culture were analyzed.

In data set [2] the test system is macrophage infiltration into carrageenan-injected sole. Description: Macrophage tracking by fluorescence imaging in carrageenan-induced acute inflammation. Conditions: C57BL/6 mice, 50 mg/kg oral, 6 hours after inducing inflammation, versus vehicle group. It is filed as in vivo, mouse. As to the method:
2 mL of thioglycollate medium (BD, USA) was injected into the abdominal cavity of a C57Bl/6 mouse, and three days later, the mouse was cervically dislocated, and 8 mL of Dulbecco's modified Eagle's medium (DMEM) was injected into the abdominal cavity to collect cells. After centrifugation, the cells were suspended in DMEM containing 10% fetal bovine serum (FBS) and 1% penicillin-streptomycin and cultured in a 5% CO2 incubator at 37° C. for 2 hours. Non-adherent cells were removed, and the remaining cells were used for experiments.
The acute anti-inflammatory activity of the example compound was evaluated using a macrophage tracking technique with fluorescence imaging. Macrophages extracted from the mouse abdominal cavity were labeled with Vybrant™ DiD Cell-Labeling Solution and then administered to the mouse via intravenous injection. The next day, 50 mg/kg of the example compound was orally administered, and 1 hour later, a 0.1% Carrageenan (CG) solution or PBS was subcutaneously injected into the right or left sole of the mouse. Fluorescent images were obtained using IVIS Lumina III at the designated time.
The inflammation model induced by λ-carrageenan in the mouse foot region is an acute arthritis model and is useful when checking the effect of suppressing edema due to osteoarthritis. […]

In data set [3] the test system is RAW 264.7 cells. Description: Cytotoxicity, CCK-8 assay. Conditions: Raw264.7 cells; 12 μM, 25 μM, 50 μM. It counts as cell-based. As to the method: To evaluate the cytotoxicity of the sample, cell proliferation was tested using a cell counting kit [CCK-8; Dojindo Laboratories (Tokyo, Japan)]. RAW 264.7 cell 1×10^4 cells/mL were dispensed into a well plate, and after pre-culturing for 20 hours, […] of LPS and example compounds were added at different concentrations and cultured for 24 hours in an incubator at 37° C. and 5% CO2. After culturing, 10 μl CCK-8 reagent was added and recultured for 1 to 2 hours, and the absorbance was measured. The absorbance was measured at 450 nm using a microplate reader [BMG Labtech (located in Offenburg, Germany)].
In order to evaluate the cytotoxicity of the compound of Example 1, Raw264.7 cells, a macrophage cell line, were treated with the compound of Example 1 at concentrations of 0, 12 μM, 25 μM, and 50 μM, respectively, and then CCK8 assay was performed according to <Experiment Method> 3 above. […] Specifically, cell proliferation was similar to that of the vehicle group even at a concentration of up to 50 μM, and no significance was detected.
For orientation: Tetrazolium dyes change colour on reduction, which living cells bring about.

Data set [4] concerns NF-κB. Description: NF-κb promoter-luciferase assay. It is filed as cell-based. Conditions: LPS-treated Raw264.7/NF-κb-luciferase cells; 12 μM, 25 μM, 50 μM. As to the method: Raw264.7/NF-kb-luc cells were treated with 1 mg/mL LPS and various concentrations of compounds using the same method as used for measuring NO. 16 hours later, after adding the D-luciferin solution to the cells, luminescence images were obtained using the IVIS Lumina III. Quantification of the luminescence images was performed using Living Imaging software.
Nuclear factor-kappa B (NF-κB), which plays an important role in inflammatory responses, is a transcription factor that regulates the synthesis of various cytokines, chemokines, and growth factors. NFκB is composed of p50 and p65, enters the nucleus, acts as a transcription factor, and synthesizes iNOS, COX-2, and inflammation-related cytokines, and generally binds to the inhibitor NF-κBα (IκBα) in the cytoplasm, thereby inhibiting the action of NF-κB. In order to confirm whether NF-κb-related cell signaling induced in Raw264.7 cells was affected by the compound of Example 1, NF-κb promoter-luciferase analysis and pIKKαβ expression change analysis were performed in Raw264.7 cells using 1 mg/mL LPS and the compound of Example 1 at concentrations of 0, 12 μM, 25 μM, and 50 μM.

Data set [5] has as its target iNOS (Mus musculus (Mouse), UniProt P29477). Description: iNOS protein expression, Western blot. It is filed as cell-based. Conditions: LPS-stimulated Raw264.7; 12 μM, 25 μM, 50 μM. The method, then:
(§1) The cells were washed twice with cold PBS and lysed with RIPA buffer (Roche) containing a complete protease inhibitor cocktail. Protein concentration was quantified using the BCA protein assay kit (Pierce, IL, USA), and 30 μL of lysate was separated by 10% SDS-PAGE. The separated proteins were transferred to a polyvinylidene difluoride (PVDF) membrane (Biorad, CA, USA) at 70 mA for 1 hour and 30 minutes, then blocked with tris-buffered saline (TBST; pH 7.5) containing 50 mg/mL skim milk at room temperature for 2 hours. As antibodies to examine the expression levels of iNOS and pIKKαβ, anti-iNOS and pIKKαβ were used, diluted 1:1000 and reacted at room temperature for 2 hours, followed by washing three times with TBST. As secondary antibodies, horseradish peroxidase (HRP)-conjugated anti-mouse IgG and anti-rabbit IgG were diluted 1:2000 and reacted at room temperature for 1 hour, followed by washing three times with TBST. Peroxidase activity was detected using ECL-Plus according to the manufacturer's protocol.
(In western blotting, separated proteins are transferred to a membrane and probed.)

Data set [6] addresses PPARδ ligand-binding domain (LBD) (Homo sapiens (Human), UniProt Q03181). Description: PPARδ activation, TR-FRET coactivator peptide recruitment (enzyme activity EC50). It is filed as biochemical. As to conditions: GST-PPARδ LBD 5 nM, read-out: Enzymatic activity (EC50). For orientation: Time-resolved FRET reads energy transfer from a long-lived donor to a nearby acceptor.
The subject of data set [7] is IL-6. Description: IL-6 secretion, cytometric bead array. It is filed as cell-based. Conditions: LPS-stimulated Raw264.7, 24 hours; 12 μM, 25 μM, 50 μM. The text has this:
(§2) The supernatant was dispensed using the same method as used for measuring NO. High amounts of TNF-α and IL-6 in the supernatant were quantified using the multiplex bead-based immunoassay (BD™ Cytometric Bead Array) system and flow cytometry (BD Biosciences).
(§3) LPS, well known as an endotoxin present in the outer cell membrane of Gram-negative bacteria, stimulates macrophages or monocytes to promote the secretion of inflammatory cytokines such as tumor necrosis factor-α (TNF-α), interleukin-1l (IL-1), and interleukin-6 (IL-6). Accordingly, in order to analyze the effect of the compound of Example 1 on inhibiting cytokine secretion, RAW264.7 cells were cultured for 24 hours by adding 1 mg/mL of LPS and the compound of Example 1 at concentrations of 0, 12 μM, 25 μM, and 50 μM, and the concentrations of IL-6 and TNFα in the culture supernatant were measured.

In data set [8] the target is pIKKαβ (Mus musculus (Mouse), UniProt O88351+Q60680). Description: pIKKαβ protein expression, Western blot. It is filed as cell-based. As to conditions: LPS-stimulated Raw264.7; 12 μM, 25 μM, 50 μM. As to the method: as §1
Nuclear factor-kappa B (NF-κB), which plays an important role in inflammatory responses, is a transcription factor that regulates the synthesis of various cytokines, chemokines, and growth factors. […]

The subject of data set [9] is TNF-α. Description: TNF-α secretion, cytometric bead array. It counts as cell-based. Conditions: LPS-stimulated Raw264.7, 24 hours; 12 μM, 25 μM, 50 μM.
Source text: as §2, §3

Sequence of PPARδ ligand-binding domain (LBD) (Q03181 211-439): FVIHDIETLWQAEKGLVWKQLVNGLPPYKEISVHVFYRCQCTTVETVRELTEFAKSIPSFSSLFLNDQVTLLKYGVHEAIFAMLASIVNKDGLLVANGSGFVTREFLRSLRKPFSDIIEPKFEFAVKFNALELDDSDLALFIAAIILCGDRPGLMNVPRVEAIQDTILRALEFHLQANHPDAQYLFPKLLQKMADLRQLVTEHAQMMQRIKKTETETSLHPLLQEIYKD

Regarding `Cc1cc(SCc2nnc(-c3ccc(C(F)(F)F)cc3)s2)ccc1OCC(=O)O` [Example 1, 2-(2-methyl-4-(((5-(4-(trifluoromethyl)phenyl)-1,3,4-thiadiazol-2-yl)methyl)thio)phenoxy)acetic acid], the NO concentration produced in [1] (compound 12.5 μM (0 μM control 22.8±1.3 μM)) is 18.9 ± 0.3 µM; in [1] (compound 25 μM (0 μM control 22.8±1.3 μM)) it was 14.8 ± 0.54 µM; in data set [1] (compound 50 μM (0 μM control 22.8±1.3 μM)) it was 2.41 ± 0.24 µM. In addition, the “fluorescent signal of labeled macrophages in sole injected with 0.1% CG” value in [2] was “lower fluorescent signal”. In addition, the “cytotoxicity (CCK8 assay, cell proliferation)” value in data set [3] was “no cytotoxicity at all concentrations”. Besides, the NF-κb-luciferase luminescent signals result in data set [4] is reported as “decreased in a concentration-dependent manner”. For the same compound, the iNOS protein expression entry in data set [5] is listed as “significantly suppressed”. For the same compound, in data set [6], the EC50 was 39.9 nM. Further, in data set [7], the “production of IL-6” value is listed as “effectively inhibited”. In addition, the pIKKαβ protein expression result in data set [8] is given as “effectively reduced”. The “production of TNFα” value in data set [9] is given as “effectively inhibited”.

The term EC50 denotes the concentration that produces a half-maximal response.
